{
  "source": "paper PMC4492822",
  "about": "(EMBO Molecular Medicine, 2015)",
  "key": {"DDX5": {"molecular_target": "T1, DDX5 (Homo sapiens, UniProt P17844)", "T1 construct": "Two plates of 70% confluent cells were lysed with IP lysis buffer; endogenous in cells", "T1 sequence (P17844 whole entry)": "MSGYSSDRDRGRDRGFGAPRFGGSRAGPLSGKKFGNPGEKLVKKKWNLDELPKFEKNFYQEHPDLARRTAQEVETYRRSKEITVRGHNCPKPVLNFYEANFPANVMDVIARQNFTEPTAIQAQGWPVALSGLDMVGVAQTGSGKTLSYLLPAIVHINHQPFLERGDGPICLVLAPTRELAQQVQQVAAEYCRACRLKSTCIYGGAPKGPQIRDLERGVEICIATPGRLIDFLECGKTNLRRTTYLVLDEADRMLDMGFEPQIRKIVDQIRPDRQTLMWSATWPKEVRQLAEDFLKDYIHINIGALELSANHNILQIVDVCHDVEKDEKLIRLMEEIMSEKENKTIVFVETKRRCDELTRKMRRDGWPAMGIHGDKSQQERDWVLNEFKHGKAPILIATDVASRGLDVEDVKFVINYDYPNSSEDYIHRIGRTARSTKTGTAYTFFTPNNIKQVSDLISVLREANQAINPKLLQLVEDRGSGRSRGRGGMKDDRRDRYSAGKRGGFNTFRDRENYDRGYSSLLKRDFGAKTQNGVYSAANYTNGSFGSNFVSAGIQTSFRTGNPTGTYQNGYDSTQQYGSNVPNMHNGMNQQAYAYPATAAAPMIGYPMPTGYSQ", "test": "Biotin bead pull-down assay with biotinylated RK-33, immunoblot", "format": "binding", "conditions": "biotinylated RK-33 molecules, 10 μM", "procedure": "(§1) Mean from 3 replicates with SD. • J, K Colony-forming assay of A549 and H3255 cells treated with RK-33 and with various doses of radiation 4 h later. Curves were fitted with a quadratic polynomial equation. Mean from 2 replicates with SD. P-values were determined by the extra sum of squares F-test. Source data are available online for this figure.\n(§2) Two plates of 70% confluent cells were lysed with IP lysis buffer (Tris–HCl (pH 7.4) 25 mM, NaCl 150 mM, EDTA 1 mM, NP-40 1%, glycerol 5%, protease inhibitor). […] Streptavidin beads were added and incubated for 1 h at room temperature. The biotin-bead–RK-33 complex was extracted with a magnetic stand and washed seven times with PBS. Proteins were analyzed by immunoblot."}, "A549 cells [1]": {"tested_on": "A549 cells", "test": "Immunoblotting of cell cycle, apoptosis, MAPK and DNA repair proteins", "format": "cell-based, human", "procedure": "(§3) Cell lysate was prepared with TB buffer method. For immunoblotting, ~25 μg protein was loaded on 10% SDS–PAGE gels. […] The blots were developed with clarity Western ECL (Bio-Rad, Hercules, CA, USA) and imaged with G:BOX Chemi XR5 (Syngene, Frederick, MD, USA)."}, "H3255 cells": {"tested_on": "H3255 cells", "test": "Immunoblotting of MAPK pathway proteins", "format": "cell-based", "conditions": "7.5 μM or 10 μM, 24 h", "procedure": "as §3"}, "[2]": {"tested_on": "lung cancer cell lines (A549, H1299, H460, H23, and H196)", "test": "Combination experiments with chemotherapy", "format": "cell-based"}, "A549 cells [3]": {"tested_on": "A549 cells", "test": "53BP1 and γH2AX foci after radiation (immunofluorescence)", "format": "cell-based, human", "conditions": "6 μM, 12 h before 2-Gy radiation", "procedure": "A549 cells were allowed to attach overnight in chamber slides. For DDR experiments (Fig6A), cells were incubated with RK-33 for 12 h and then radiated with 2 Gy. After 0, 1, 6, and 24 h, cells were fixed and stained. Cells were fixed for 15 min in 4% formalin, washed with PBS, permeabilized (PBS containing 0.2% Triton X-100) for 5 min, and blocked for 30 min with 10% goat serum. […] Next, cells were washed with PBS and incubated with secondary antibodies, CY3 (1:200, goat anti-mouse, 115-165-071, Jackson Immuno Research) or Alexa fluor 488 (1:200, goat anti-rabbit, A11034, Invitrogen) for 1 h. Cells were washed, nuclei-stained with 4′,6-diamidino-2-phenylindole (DAPI), and cover-slipped. Photographs were taken with Nikon Eclipse 80i fluorescence microscope using a CoolSnap ES camera (Roper scientific, Sarasota, FL, USA)."}, "H23": {"tested_on": "H23", "test": "Annexin V / PI flow cytometry, 72 h", "format": "cell-based", "procedure": "(§4) Histograms depicting early apoptosis (Annexin V positive) and late apoptosis (PI positive) in cells treated with the indicated amounts of RK-33. Cells were either treated with DMSO (controls) or IC50 and IC75 amounts of RK-33. After 72 hours incubation, cells were harvested and stained for Annexin V and PI and analyzed by flow cytometry."}, "H460": {"tested_on": "H460", "test": "Annexin V / PI flow cytometry, 72 h", "format": "cell-based", "procedure": "as §4"}, "H358": {"tested_on": "H358", "test": "Annexin V / PI flow cytometry, 72 h", "format": "cell-based", "procedure": "as §4"}, "H1299": {"tested_on": "H1299", "test": "Annexin V / PI flow cytometry, 72 h", "format": "cell-based", "procedure": "as §4"}, "H196": {"tested_on": "H196", "test": "Annexin V / PI flow cytometry, 72 h", "format": "cell-based", "procedure": "as §4"}, "H3255": {"tested_on": "H3255", "test": "MTS viability assay, 72 h, line with low DDX3 expression", "format": "cell-based", "procedure": "Proliferation was determined by counting cancer cells over time. Cells were seeded at 7.5 × 10^4 cells/well and counted daily with a TC10 automated cell counter (Bio-Rad, Hercules, CA, USA) at least three times. Viability of cancer cells was determined by MTS assay (CellTiter 96® AQueous One Solution, Promega, Madison, WI, USA) as described by the manufacturer. Briefly, 800–2,000 cells were allowed to attach overnight in a 96-well plate, treated with different concentrations of RK-33 and kept for 72 h. MTS reagent was kept for 2 h. Each experiment was repeated a minimum of three independent times."}, "[4]": {"tested_on": "TCF4 activity in A549 cells", "test": "TCF reporter assay (TOP/FOP-FLASH)", "format": "cell-based, human", "conditions": "0, 1, 2, and 3 μM; wild-type and β-catenin-overexpressing cells", "procedure": "Transcriptional activity of TCF4 was assayed using the dual luciferase assay (Promega, Madison, WI, USA) according to the manufacturer's instructions. Briefly, 1.5 × 10^4 A549 or H1299 cells were transfected with 500 ng of TOP-FLASH and control FOP-FLASH constructs along with 50 ng of phRL Renilla constructs as transfection controls as well as with 500 ng β-catenin constructs when indicated. Cells were cultured for 24 h and then lysed in passive lysis buffer. Luminescence was detected using a luminometer (Berthold Sirius, Oak Ridge, TN, USA). Relative TCF4 promoter activity was calculated by dividing firefly luminescence by Renilla luminescence, and then normalized TOP-FLASH was divided by normalized FOP-FLASH, which was finally normalized to vector or DMSO control cells. All experiments were repeated three times, and differences were assessed by the paired t-test."}, "DDX3": {"molecular_target": "DDX3 (Homo sapiens, UniProt O00571)", "sequence (O00571 2-582)": "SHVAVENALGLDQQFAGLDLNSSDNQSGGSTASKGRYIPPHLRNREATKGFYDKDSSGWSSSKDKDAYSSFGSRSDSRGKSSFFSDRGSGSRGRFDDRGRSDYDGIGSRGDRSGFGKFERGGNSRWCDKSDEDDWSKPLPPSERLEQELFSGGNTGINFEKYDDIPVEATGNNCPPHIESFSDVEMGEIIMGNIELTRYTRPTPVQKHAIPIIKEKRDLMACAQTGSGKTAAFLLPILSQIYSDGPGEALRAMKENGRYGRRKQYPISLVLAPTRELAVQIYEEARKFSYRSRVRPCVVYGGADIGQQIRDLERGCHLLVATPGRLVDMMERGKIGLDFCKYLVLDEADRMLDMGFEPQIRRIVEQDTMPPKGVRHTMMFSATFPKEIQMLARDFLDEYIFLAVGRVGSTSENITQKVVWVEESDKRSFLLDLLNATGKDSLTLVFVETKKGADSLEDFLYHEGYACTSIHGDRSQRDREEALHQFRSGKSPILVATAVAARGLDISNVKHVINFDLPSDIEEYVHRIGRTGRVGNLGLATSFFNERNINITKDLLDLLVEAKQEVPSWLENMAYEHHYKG", "test": "Biotin bead pull-down assay with biotinylated RK-33 (AK-298, SK-153), immunoblot", "format": "binding", "conditions": "biotinylated RK-33 molecules, 10 μM", "procedure": "as §1, §2"}, "[5]": {"conditions": "7.5 uM, lower line, first value"}, "[6]": {"conditions": "7.5 uM, lower line, second value"}},
  "data": [
    {"substance": "diimidazo[4,5-d:4′,5′-f]-[1,3]diazepine [RK-33]", "values": [
      {"measurement": "binding to DDX5 in pull-down", "setting": "DDX5", "result": "not to the closely related proteins DDX5 and DDX17"},
      {"measurement": "DNA repair proteins ATR and XRCC4", "setting": "A549 cells [1]; 6 μM for 4 h, then 5 Gy", "result": "decrease of ATR but not XRCC4"},
      {"measurement": "phosphorylated ERK2 and ERK1", "setting": "A549 cells [1]; 7.5 μM or 10 μM, 24 h", "result": "reduction of phosphorylated ERK2 and ERK1"},
      {"measurement": "caspase cleavage", "setting": "A549 cells [1]; 10 μM", "result": "cleavage of caspases 7 and 9"},
      {"measurement": "cyclin D1 protein", "setting": "A549 cells [1]; 10 μM, especially evident 2 h after treatment", "result": "substantial reduction of cyclin D1"},
      {"measurement": "ERK1/2 phosphorylation", "setting": "H3255 cells", "result": "increase of ERK1/2 phosphorylation"},
      {"measurement": "synergy of RK-33 + cisplatin", "setting": "[2]", "result": "did not observe significant synergy"},
      {"measurement": "synergy of RK-33 + paclitaxel", "setting": "[2]", "result": "did not observe significant synergy"},
      {"measurement": "persistence of radiation-induced DNA damage (53BP1 and γ-H2AX foci)", "setting": "A549 cells [3]", "result": "DNA damage persisted well beyond 24 h"},
      {"measurement": "cells in gate of Annexin V/PI plot", "setting": "H23; 5 uM, lower line, first value", "result": 30.3},
      {"measurement": "cells in gate of Annexin V/PI plot", "setting": "H23; 5 uM, lower line, second value", "result": 28.2},
      {"measurement": "cells in gate of Annexin V/PI plot", "setting": "H23; 5 uM, upper value of panel", "result": 39},
      {"measurement": "cells in gate of Annexin V/PI plot", "setting": "H23; [5]", "result": 17.1},
      {"measurement": "cells in gate of Annexin V/PI plot", "setting": "H23; [6]", "result": 18.8},
      {"measurement": "cells in gate of Annexin V/PI plot", "setting": "H23; 7.5 uM, upper value of panel", "result": 60.4},
      {"measurement": "cells in gate of Annexin V/PI plot", "setting": "H460; 6.5 uM, lower value of panel", "result": 62},
      {"measurement": "cells in gate of Annexin V/PI plot", "setting": "H460; 6.5 uM, upper value of panel", "result": 25.6},
      {"measurement": "cells in gate of Annexin V/PI plot", "setting": "H460; 9 uM, lower value of panel", "result": 50.1},
      {"measurement": "cells in gate of Annexin V/PI plot", "setting": "H460; 9 uM, upper value of panel", "result": 34.7},
      {"measurement": "cells in gate of Annexin V/PI plot", "setting": "H358; 11 uM, lower line, first value", "result": 26.6},
      {"measurement": "cells in gate of Annexin V/PI plot", "setting": "H358; 11 uM, lower line, second value", "result": 31.9},
      {"measurement": "cells in gate of Annexin V/PI plot", "setting": "H358; 11 uM, upper value of panel", "result": 34.9},
      {"measurement": "cells in gate of Annexin V/PI plot", "setting": "H358; 16 uM, lower line, first value", "result": 26.8},
      {"measurement": "cells in gate of Annexin V/PI plot", "setting": "H358; 16 uM, lower line, second value", "result": 26.5},
      {"measurement": "cells in gate of Annexin V/PI plot", "setting": "H358; 16 uM, upper value of panel", "result": 40.8},
      {"measurement": "cells in gate of Annexin V/PI plot", "setting": "H1299; [5]", "result": 40.4},
      {"measurement": "cells in gate of Annexin V/PI plot", "setting": "H1299; [6]", "result": 12.6},
      {"measurement": "cells in gate of Annexin V/PI plot", "setting": "H1299; 7.5 uM, upper value of panel", "result": 33.7},
      {"measurement": "cells in gate of Annexin V/PI plot", "setting": "H1299; 13 uM, lower line, first value", "result": 36},
      {"measurement": "cells in gate of Annexin V/PI plot", "setting": "H1299; 13 uM, lower line, second value", "result": 7.3},
      {"measurement": "cells in gate of Annexin V/PI plot", "setting": "H1299; 13 uM, upper value of panel", "result": 41.5},
      {"measurement": "cells in gate of Annexin V/PI plot", "setting": "H196; 3 uM, lower value of panel", "result": 43.3},
      {"measurement": "cells in gate of Annexin V/PI plot", "setting": "H196; 3 uM, upper value of panel", "result": 52.7},
      {"measurement": "cells in gate of Annexin V/PI plot", "setting": "H196; 4.5 uM, lower value of panel", "result": 36.6},
      {"measurement": "cells in gate of Annexin V/PI plot", "setting": "H196; 4.5 uM, upper value of panel", "result": 60.9},
      {"measurement": "IC50", "setting": "H3255", "result": "> 25", "unit": "µM"},
      {"measurement": "TCF activity", "setting": "[4]", "result": "reduced TCF activity significantly"},
      {"measurement": "binding to DDX3 in pull-down", "setting": "DDX3", "result": "binds specifically to DDX3"}
    ]}
  ]
}
